# Test results from US11787865B2, “Bifunctional molecules for lysosomal targeting and related compositions and methods” (The Board of Trustees of the Leland Stanford Junior …, priority 2018, dated 2023).
# Legend:
# mouse IgG (IgG-AF647) = assay: Cellular uptake of IgG-AF647 in HUH7 cells; format: cell-based; conditions: HUH7 cells incubated with inhibitor
# Experimental: To assess whether a bifunctional molecule comprising ASGPR ligands could indeed shuttle cargo to lysosomes in hepatocytes, an assay schematically illustrated in FIG. 21 was employed. A bifunctional molecule comprising an anti-mouse IgG antibody conjugated to a poly(GalNAc-co-Ala) polymer was tested to determine whether the bifunctional molecule could shuttle extracellular fluorescent-labeled mouse IgG (IgG-AF647) into the intracellular compartment of hepatocytes. […] HEPG2 cells (hepatocellular carcinoma cell line) were incubated with 50 nM IgG-AF647 and 25 nM of anti-mouse conjugates for 1 hour. Cellular uptake was analyzed by flow cytometry. As shown by the bar graph, an approximately 8-fold increase in cell fluorescence was observed using the GalNAc-containing conjugate while the M6Pn-containing conjugate induced 2-fold increase over background.
# Shown in FIG. 22 are results from the assay described for FIG. 21 but in HUH7 cells (another hepatocellular carcinoma cell line). […] In addition, controls were included in which the cells were incubated with M6PR or ASGPR inhibitors (monomeric M6P (mM6P) and monomeric GalNAc (mGalNAc), respectively).
# [1] = biological target: cation independent M6PR (CIM6PR) (Homo sapiens, UniProt P11717); conditions: relative to mannose-6-phosphate glycans; cited from earlier work
# Sequence of cation independent M6PR (CIM6PR) (P11717 41-2491): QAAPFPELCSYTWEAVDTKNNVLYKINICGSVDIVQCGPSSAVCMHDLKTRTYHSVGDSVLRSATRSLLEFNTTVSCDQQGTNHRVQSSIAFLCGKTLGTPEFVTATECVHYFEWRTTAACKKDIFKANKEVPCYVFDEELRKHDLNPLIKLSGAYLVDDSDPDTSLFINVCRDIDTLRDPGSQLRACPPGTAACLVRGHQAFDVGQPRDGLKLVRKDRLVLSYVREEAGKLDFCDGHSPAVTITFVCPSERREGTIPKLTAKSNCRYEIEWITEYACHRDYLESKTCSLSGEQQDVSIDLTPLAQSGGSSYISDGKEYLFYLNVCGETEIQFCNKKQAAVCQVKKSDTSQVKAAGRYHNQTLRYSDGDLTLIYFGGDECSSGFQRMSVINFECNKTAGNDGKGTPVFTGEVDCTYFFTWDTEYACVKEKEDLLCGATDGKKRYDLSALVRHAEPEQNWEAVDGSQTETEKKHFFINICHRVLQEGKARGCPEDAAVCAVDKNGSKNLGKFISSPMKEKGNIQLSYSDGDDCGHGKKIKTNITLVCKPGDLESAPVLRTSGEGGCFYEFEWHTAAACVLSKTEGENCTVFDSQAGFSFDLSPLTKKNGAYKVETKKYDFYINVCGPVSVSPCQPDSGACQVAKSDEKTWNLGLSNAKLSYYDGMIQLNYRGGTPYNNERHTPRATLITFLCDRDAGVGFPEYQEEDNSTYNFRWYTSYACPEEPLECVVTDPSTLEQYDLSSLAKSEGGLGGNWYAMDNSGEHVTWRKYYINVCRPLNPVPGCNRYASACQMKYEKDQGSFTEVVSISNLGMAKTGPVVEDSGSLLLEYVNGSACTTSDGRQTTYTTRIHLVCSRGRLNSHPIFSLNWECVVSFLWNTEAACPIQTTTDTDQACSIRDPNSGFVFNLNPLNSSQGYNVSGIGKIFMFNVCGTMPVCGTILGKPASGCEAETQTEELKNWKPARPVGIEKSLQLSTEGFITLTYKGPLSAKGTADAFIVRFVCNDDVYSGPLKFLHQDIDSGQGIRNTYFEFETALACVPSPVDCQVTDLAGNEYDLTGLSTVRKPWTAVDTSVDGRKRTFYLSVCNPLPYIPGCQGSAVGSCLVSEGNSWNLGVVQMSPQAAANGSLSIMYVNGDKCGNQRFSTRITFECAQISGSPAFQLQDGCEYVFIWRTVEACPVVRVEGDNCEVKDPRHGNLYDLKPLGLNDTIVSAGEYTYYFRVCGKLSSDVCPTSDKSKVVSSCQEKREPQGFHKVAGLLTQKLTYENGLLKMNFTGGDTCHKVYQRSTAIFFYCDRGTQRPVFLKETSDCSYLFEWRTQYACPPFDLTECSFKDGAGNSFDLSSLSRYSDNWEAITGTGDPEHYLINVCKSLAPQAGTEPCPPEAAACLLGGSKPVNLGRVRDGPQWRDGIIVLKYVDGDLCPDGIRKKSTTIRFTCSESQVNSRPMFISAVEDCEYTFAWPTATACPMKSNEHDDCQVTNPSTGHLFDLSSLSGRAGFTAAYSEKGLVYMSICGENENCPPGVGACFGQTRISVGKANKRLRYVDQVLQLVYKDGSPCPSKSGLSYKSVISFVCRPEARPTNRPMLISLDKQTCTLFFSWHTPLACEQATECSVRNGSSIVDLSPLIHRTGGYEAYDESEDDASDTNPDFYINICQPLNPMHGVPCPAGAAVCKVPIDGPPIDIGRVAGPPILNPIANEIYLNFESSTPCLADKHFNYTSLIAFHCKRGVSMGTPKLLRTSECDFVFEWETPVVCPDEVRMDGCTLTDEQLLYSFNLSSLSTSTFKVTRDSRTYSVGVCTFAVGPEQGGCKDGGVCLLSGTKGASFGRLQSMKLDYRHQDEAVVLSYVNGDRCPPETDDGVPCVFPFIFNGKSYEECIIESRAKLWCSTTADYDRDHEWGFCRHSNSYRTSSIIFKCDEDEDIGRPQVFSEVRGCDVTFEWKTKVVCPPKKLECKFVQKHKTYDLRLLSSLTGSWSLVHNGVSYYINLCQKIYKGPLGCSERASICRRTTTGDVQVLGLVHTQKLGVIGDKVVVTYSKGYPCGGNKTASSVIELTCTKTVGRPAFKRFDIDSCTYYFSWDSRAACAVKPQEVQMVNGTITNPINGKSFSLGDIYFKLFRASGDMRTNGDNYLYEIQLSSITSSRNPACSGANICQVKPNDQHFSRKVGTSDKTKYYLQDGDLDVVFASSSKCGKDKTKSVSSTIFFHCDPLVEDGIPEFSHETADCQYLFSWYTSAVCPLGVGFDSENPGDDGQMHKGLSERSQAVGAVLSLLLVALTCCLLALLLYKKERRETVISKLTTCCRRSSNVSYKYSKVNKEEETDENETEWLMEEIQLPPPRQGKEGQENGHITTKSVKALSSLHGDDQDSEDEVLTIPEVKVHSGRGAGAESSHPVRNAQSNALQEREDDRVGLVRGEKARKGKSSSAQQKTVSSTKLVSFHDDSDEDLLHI
# [2] = cited from earlier work
molecule,measurement,setting,value
"O=P(O)(O)OC[C@H]1OC(O)[C@@H](O)[C@@H](O)[C@@H]1O (some centres unmarked) [mM6P, monomeric M6P]",uptake of IgG-AF647 with conjugates in presence of M6PR or ASGPR inhibitor,mouse IgG (IgG-AF647),Uptake was reduced
"CC(=O)N[C@H]1C(O)O[C@H](CO)[C@H](O)[C@@H]1O (mixture of isomers) [mGalNAc, monomeric GalNAc]",uptake of IgG-AF647 with conjugates in presence of M6PR or ASGPR inhibitor,mouse IgG (IgG-AF647),Uptake was reduced
"C=CC(=O)OC[C@@H](O)[C@@H](O)[C@H](O)[C@H](O)C=O [Mannose-6-acrylate glycans, Mannose-6-acrylate]","relative binding affinity for the CIM6PR, compared to mannose-6-phosphate glycans",[1],0.7
same,serum stability compared to mannose-6-phosphate glycans,[2],better serum stability
Mannose-6-carboxylate [Mannose-6-carboxylate glycans],"relative binding affinity for the CIM6PR, compared to mannose-6-phosphate glycans",[1],0.3
